The source made the active and inactive calls. No cut-off for these calls is given here.
Columns and labels:
[1] = tested on: A-375; assay: Induction of apoptosis in human A375 cells assessed as increase in ratio of Bax/Bcl2 at 30 uM after 48 hrs by fluorescence assay relative to control; format: functional, cell-based
[2] = tested on: A-375; assay: Cell cycle arrest in human A375 cells assessed as accumulation at S phase at 17 uM after 48 hrs using propidium iodide staining by FACS flow cytometry (reference value: 23.0 +/- 3.3%); format: functional
[3] = tested on: A-375; assay: Cell cycle arrest in human A375 cells assessed as accumulation at sub G1 phase at 17 uM after 48 hrs using propidium iodide staining by FACS flow cytometry; format: functional
[4] = tested on: A-375; assay: Cell cycle arrest in human A375 cells assessed as accumulation at S phase at 30 uM after 48 hrs using propidium iodide staining by FACS flow cytometry (reference value: 23.0 +/- 3.3%); format: functional
[5] = tested on: A-375; assay: Selectivity index, ratio of IC50 for human HFF1 cells to IC50 for human A375 cells; format: functional
[6] = tested on: A-375; assay: Cell cycle arrest in human A375 cells assessed as accumulation at G1 phase at 17 uM after 48 hrs using propidium iodide staining by FACS flow cytometry (reference value: 66.4 +/- 4.1%); format: functional
[7] = tested on: A-375; assay: Cytotoxicity against human A375 cells after 48 hrs by MTT assay; format: functional, cell-based; details: for IC50: A-375, 48 h
[8] = tested on: MCF7; assay: Selectivity index, ratio of IC50 for human HFF1 cells to IC50 for human MCF7 cells; format: functional
[9] = tested on: A-375; assay: Cell cycle arrest in human A375 cells assessed as accumulation at G2 phase at 30 uM after 48 hrs using propidium iodide staining by FACS flow cytometry (reference value: 10.6 +/- 1.2%); format: functional
[10] = tested on: A-375; assay: Induction of apoptosis in human A375 cells assessed as increase in ratio of Bax/Bcl2 at 17 uM after 48 hrs by fluorescence assay relative to control; format: functional
[11] = tested on: A-375; assay: Induction of apoptosis in human A375 cells after 48 hrs using propidium iodide staining by FACS flow cytometry; format: functional, cell-based
[12] = tested on: A-375; assay: Cytotoxicity against human A375 cells after 48 hrs by annexin V/propidium iodide staining based FACS flow cytometry; format: functional, cell-based
[13] = tested on: A-375; assay: Cell cycle arrest in human A375 cells assessed as accumulation at G2 phase at 17 uM after 48 hrs using propidium iodide staining by FACS flow cytometry (reference value: 10.6 +/- 1.2%); format: functional
[14] = tested on: HCC1806; assay: Cytotoxicity against human HCC1806 cells after 48 hrs by MTT assay; format: functional, cell-based; details: HCC1806, 48 h
[15] = tested on: A-375; assay: Cell cycle arrest in human A375 cells assessed as accumulation at sub G1 phase at 30 uM after 48 hrs using propidium iodide staining by FACS flow cytometry; format: functional
[16] = tested on: A-375; assay: Cytotoxicity against human A375 cells assessed as increase in late apoptotic cells at 17 to 30 uM after 48 hrs by annexin V/propidium iodide staining based FACS flow cytometry; format: functional, cell-based
[17] = Cytotoxicity against human HFF1 cells after 48 hrs by MTT assay; format: cell-based; details: HFF-1, 48 h
[18] = tested on: A-375; assay: Cytotoxicity against human A375 cells assessed as increase in necrotic cells at 17 to 30 uM after 48 hrs by annexin V/propidium iodide staining based FACS flow cytometry; format: functional, cell-based
[19] = tested on: A-375; assay: Cell cycle arrest in human A375 cells assessed as accumulation at G1 phase at 30 uM after 48 hrs using propidium iodide staining by FACS flow cytometry (reference value: 66.4 +/- 4.1%); format: functional
[20] = tested on: A-375; assay: Cytotoxicity against human A375 cells assessed as increase in apoptotic cells at 17 to 30 uM after 48 hrs by annexin V/propidium iodide staining based FACS flow cytometry; format: functional, cell-based
[21] = tested on: A-375; assay: Cytotoxicity against human A375 cells assessed as decrease in viable cells at 17 to 30 uM after 48 hrs by annexin V/propidium iodide staining based FACS flow cytometry; format: functional, cell-based
[22] = tested on: MCF7; assay: Cytotoxicity against human MCF7 cells after 48 hrs by MTT assay; format: functional, cell-based; details: for IC50: MCF7, 48 h

Structure (SMILES) | Ratio IC50 [5] | Activity [7] | IC50 [7] [µM] | Ratio IC50 [8] | IC50 [14] [µM] | IC50 [17] [µM] | Activity [22] | IC50 [22] [µM] | other results
CCCCCCCCCCCCCCCCNC(=O)C1CSC([C@H](O)[C@@H](OC(C)=O)[C@@H](OC(C)=O)[C@@H](COC(C)=O)OC(C)=O)N1C(C)=O (mixture of isomers) | 1.8 | Dose-dependent effect | 17 | 5.8 | 12.6 | 29.8 | Dose-dependent effect | 5.8 | Activity [1]: Active; Activity [2]: 23.6%; Activity [3]: 5.6%; Activity [4]: 46%; Activity [6]: 60.6%; Activity [9]: 10.2%; Ratio [10]: 2; Activity [11]: Dose-dependent effect; Activity [12]: Dose-dependent effect; Activity [13]: 16%; Activity [15]: 16.6%; Activity [16]: Active; Activity [18]: Active; Activity [19]: 43.6%; Activity [20]: Active; Activity [21]: Active
CCCCCCCCCCCCCCNC(=O)C1CSC([C@H](O)[C@@H](OC(C)=O)[C@@H](OC(C)=O)[C@@H](COC(C)=O)OC(C)=O)N1C(C)=O (mixture of isomers) | 1 | Dose-dependent effect | 19.6 | 2.2 | – | 19.6 | Dose-dependent effect | 8.4 | –
CN(C)/N=N/c1[nH]cnc1C(N)=O [DACARBAZINE] | – | – | > 500 | – | – | – | – | – | –
CCCCCCCCCCCCCCCCCCNC(=O)C1CSC([C@H](O)[C@@H](OC(C)=O)[C@@H](OC(C)=O)[C@@H](COC(C)=O)OC(C)=O)N1C(C)=O (mixture of isomers) | 1.1 | Dose-dependent effect | 20.5 | 3 | – | 27.2 | Dose-dependent effect | 7.7 | –
CC(=O)O[C@@]12CO[C@@H]1C[C@H](O)[C@@]1(C)C(=O)[C@H](O)C3=C(C)[C@@H](OC(=O)[C@H](O)[C@@H](NC(=O)OC(C)(C)C)c4ccccc4)C[C@@](O)([C@@H](OC(=O)c4ccccc4)[C@H]21)C3(C)C [DOCETAXEL] | – | – | – | – | 8.4 | – | – | 11.9 | –
CCCCCCCCCCCCNC(=O)C1CSC([C@H](O)[C@@H](OC(C)=O)[C@@H](OC(C)=O)[C@@H](COC(C)=O)OC(C)=O)N1C(C)=O (mixture of isomers) | 0.22 | Dose-dependent effect | 23.1 | 0.91 | – | 2.9 | Dose-dependent effect | 7.5 | –
